Experimental data published in ChEMBL document CHEMBL4373702, “Intracellular Trapping of the Selective Phosphoglycerate Dehydrogenase (PHGDH) Inhibitor BI-4924 Disrupts Serine Biosynthesis” (J Med Chem, 2019).

What was measured:
[1] = molecular target: T1, D-3-phosphoglycerate dehydrogenase (Homo sapiens, UniProt O43175); assay: Inhibition of N-terminal His6-tagged human PHGDH (4 to 315 residues) assessed as effect on NADH fluorescence incubated for 2 hrs using 3-PG substrate in presence of 19 uM NAD+ and PSAT1 by diaphorase based luminescence assay
T1 sequence (O43175 whole entry): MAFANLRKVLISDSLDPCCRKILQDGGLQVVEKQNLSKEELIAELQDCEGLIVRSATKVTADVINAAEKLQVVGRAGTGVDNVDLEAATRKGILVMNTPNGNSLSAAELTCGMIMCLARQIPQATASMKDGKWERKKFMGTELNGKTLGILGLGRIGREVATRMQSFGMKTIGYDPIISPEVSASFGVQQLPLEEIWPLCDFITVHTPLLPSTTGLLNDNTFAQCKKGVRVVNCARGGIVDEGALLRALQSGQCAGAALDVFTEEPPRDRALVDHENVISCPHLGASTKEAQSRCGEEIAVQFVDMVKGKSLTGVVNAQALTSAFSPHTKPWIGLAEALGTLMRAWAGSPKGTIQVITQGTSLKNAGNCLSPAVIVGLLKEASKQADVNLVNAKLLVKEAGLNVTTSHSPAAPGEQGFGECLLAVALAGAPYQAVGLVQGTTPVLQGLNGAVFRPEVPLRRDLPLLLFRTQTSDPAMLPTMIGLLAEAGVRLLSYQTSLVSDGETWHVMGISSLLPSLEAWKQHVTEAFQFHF

[2] = molecular target: T1, D-3-phosphoglycerate dehydrogenase; assay: Inhibition of N-terminal His6-tagged human PHGDH (4 to 315 residues) assessed as effect on NADH fluorescence incubated for 2 hrs using 3-PG substrate in presence of 250 uM NAD+ and PSAT1 by diaphorase based luminescence assay
[3] = molecular target: T1, D-3-phosphoglycerate dehydrogenase; assay: Binding affinity to N-terminal His6-tagged human PHGDH (4 to 315 residues)by SPR assay
[4] = Drug uptake in human MDA-MB-468 cells assessed as BI-4924 levels at 3 uM measured up to 72 hrs relative to control; format: ADME, cell-based; conditions: mda-mb-468, 72 h
[5] = Drug uptake in human MDA-MB-468 cells assessed as BI-4924 levels at 3 uM measured up to 72 hrs; format: ADME, cell-based; conditions: mda-mb-468, 72 h, TDE = time-dependent effect
[6] = Half life in 10% fetal calf serum; format: ADME, cell-free, Bos taurus; conditions: cattle
[7] = Half life in mouse serum; format: ADME, cell-free
[8] = molecular target: T1, D-3-phosphoglycerate dehydrogenase; assay: Inhibition of PHGDH in human MDA-MB-468 cells assessed as reduction in [13C]-serine incubated for 1 hr using [13C]glucose as substrate by LC-MS/MS analysis; format: cell-based
[9] = molecular target: T1, D-3-phosphoglycerate dehydrogenase; assay: Inhibition of PHGDH in human MDA-MB-468 cells assessed as reduction in [13C]-serine incubated for 72 hrs using [13C]glucose as substrate by LC-MS/MS analysis; format: cell-based
[10] = molecular target: T1, D-3-phosphoglycerate dehydrogenase; assay: Binding affinity to human PHGDH ( 1 to 533 residues) expressed in Escherichia coli Rosetta (DE3) by Sypro-orange dye based differential scanning fluorimetry
[11] = molecular target: T1, D-3-phosphoglycerate dehydrogenase; assay: Inhibition of His6-tagged PHGDH (unknown origin) expressed in Escherichia coli BL21 assessed as effect on NADH fluorescence incubated for 60 mins using 3-PG as substrate in presence of 500 uM NAD+ and PSAT1 by diaphorase and resazurin dye based fluorescence assay

IC50 [1] [µM]	SMILES	also measured
22	C[C@@H](NC(=O)c1cc(-c2ccccc2)nn1C)c1ccccc1	–
38.1	C[C@@H](NC(=O)c1cc(-c2ccccc2)nn1C)c1ccc(N)cc1	–
5.83	CC(NC(=O)c1cc(-c2ccccc2)nn1C)c1ccc(S(C)(=O)=O)cc1 (racemic)	–
0.9	CC(NC(=O)c1cc(-c2ccccc2)nn1C)c1ccc(C(=O)O)cc1 (racemic)	–
> 100	Cn1c(C(=O)NC(C(N)=O)c2ccccc2)cc2cc(Cl)ccc21 (racemic)	–
23.2	Cc1ccc([C@@H](C)NC(=O)c2cc(-c3ccccc3)nn2C)cc1	–
55.4	C[C@@H](NC(=O)c1cc(-c2ccccc2)nn1C)c1ccc([N+](=O)[O-])cc1	–
> 100	Cn1c(C(=O)N[C@@H](c2ccccc2)[C@H](O)C(F)(F)F)cc2cc(Cl)ccc21 (relative stereo)	–
> 100	Cn1nc(-c2ccccc2)cc1C(=O)NCc1ccccc1	–
12.2	C[C@@H](NC(=O)c1cc(-c2ccccc2)nn1C)c1ccc(N2CC[C@H](O)C2)cc1	–
33.7	CC(NC(=O)c1cc(-c2ccccc2)nn1C)c1ccc(C#N)cc1 (racemic)	–
0.123	COc1cc(F)c(Cl)c2cc(C(=O)N[C@H](C)c3ccc(C(=O)O)cc3)n(C)c12	IC50 [2]: 1.29 µM
42.1	C[C@@H](NC(=O)c1cc(-c2ccccc2)nn1C)c1ccc(N2CCCC2)cc1	–
> 100	C[C@@H](NC(=O)c1cc(-c2ccccc2)nn1C)c1ccc(N(C)C(=N)N)cc1	–
0.07	CC(=O)NS(=O)(=O)c1ccc(C(C)NC(=O)c2cc(-c3ccccc3)nn2C)cc1 (racemic)	–
0.1	C[C@@H](NC(=O)c1cc(-c2ccccc2)nn1C)c1ccc(N2C(=O)CC[C@H]2C(=O)O)cc1	–
1.3	Cn1nc(-c2ccccc2)cc1C(=O)NC(C)(C)c1ccc(C(=O)O)cc1	–
0.3	C[C@@H](NC(=O)c1cc(-c2ccccc2)nn1C)c1ccc(C(=O)NS(C)(=O)=O)cc1	–
0.014	Cc1cc2c(cc(C(=O)N[C@H](C)c3ccc(C(=O)O)cc3)n2C)c(Cl)c1Cl	IC50 [2]: 0.095 µM
0.058	C[C@@H](NC(=O)c1cc2c3ccccc3ccc2n1C)c1ccc(C(=O)O)cc1	IC50 [2]: 0.345 µM
21.5	C[C@@H](NC(=O)c1cc(-c2ccccc2)nn1C)c1ccc(-c2cncnc2)cc1	–
3.3	C[C@@H](NC(=O)c1cc(-c2ccccc2)nn1C)c1ccc(N2CCCC2=O)cc1	–

IC50 [1] [µM]	SMILES	also measured
53.8	C[C@@H](NC(=O)c1cc(-c2ccccc2)nn1C)c1ccc(NS(C)(=O)=O)cc1	–
0.1	CC(=O)NS(=O)(=O)c1ccc([C@@H](C)NC(=O)c2cc(-c3ccccc3)nn2C)cc1	–
1.4	C[C@@H](NC(=O)c1cc(-c2ccccc2)nn1C)c1ccc(N(CC(=O)O)S(C)(=O)=O)cc1	–
6.7	CC(NC(=O)c1cc(-c2ccccc2)nn1C)c1ccc(N(C)S(C)(=O)=O)cc1 (racemic)	–
1.95	C[C@@H](NC(=O)c1cc2ccccc2n1C)c1ccc(C(=O)O)cc1	–
2.3	C[C@@H](NC(=O)c1cc(-c2ccccc2)nn1C)c1ccc(N2C(=O)CNC2=O)cc1	–
–	Cn1c(C(=O)Nc2cccc(C(=O)O)c2)cc2ccccc21	Kd [3]: 144 µM
0.061	C[C@@H](NC(=O)c1cc2cc(Cl)c(Br)cc2n1C)c1ccc(C(=O)O)cc1	IC50 [2]: 0.341 µM
0.03	C[C@@H](NC(=O)c1cc2c(Cl)c(Cl)ccc2n1C)c1ccc(C(=O)O)cc1	IC50 [2]: 0.228 µM
5.7	Cn1nc(-c2ccccc2)cc1C(=O)NCc1ccc(C(=O)O)cc1	–
6	C[C@@H](NC(=O)c1cc(-c2ccccc2)nn1C)c1ccc(CO)cc1	–
–	CCOC(=O)CS(=O)(=O)c1ccc([C@@H](CO)NC(=O)c2cc3c(Cl)c(Cl)c(C)cc3n2C)cc1	fold change (FC) [4]: <= 140; Drug uptake [5]: Tde; half-life [6]: 4.6 h; half-life [7]: 2.25 h; IC50 [8]: 0.029 µM; IC50 [9]: 2 µM
100	Cn1c(C(=O)NC(CCO)c2ccccc2)cc2cc(Cl)ccc21 (racemic)	–
0.081	C[C@@H](NC(=O)c1cc2c(Cl)cc(C(F)F)cc2n1C)c1ccc(C(=O)O)cc1	IC50 [2]: 0.714 µM
–	Cn1nc(-c2ccccc2)cc1C(=O)NC1CC1	Kd [3]: 105 µM
12.1	C[C@@H](O)[C@@H](NC(=O)c1cc2cc(Cl)ccc2n1C)c1ccccc1	–
0.051	Cc1cc2c(cc1Cl)cc(C(=O)N[C@H](C)c1ccc(C(=O)O)cc1)n2C	IC50 [2]: 0.412 µM
0.028	Cc1cc2c(cc(C(=O)N[C@H](C)c3ccc(C(=O)O)cc3)n2C)c2ccccc12	IC50 [2]: 0.249 µM
–	NC(=O)c1ccc(F)c(Cl)c1	Kd [10]: 1500 µM
0.8	CC(NC(=O)c1cc(-c2ccccc2)nn1C)c1ccc(CC(=O)O)cc1 (racemic)	–
39.6	Cn1c(C(=O)NC(CN)c2ccccc2)cc2cc(Cl)ccc21 (racemic)	–
–	CC(=O)NS(=O)(=O)N1CCC(NC(=O)c2cc3c(Cl)c(Cl)ccc3n2C)C(CC(=O)O)C1 (stereo not drawn)	IC50 [11]: 0.01 to 1.5 µM

IC50 [1] [µM]	SMILES	also measured
2.5	C[C@@H](NC(=O)c1cc(-c2ccccc2)nn1C)c1ccc(N2CCCS2(=O)=O)cc1	–
0.002	Cc1cc2c(cc(C(=O)N[C@H](C)c3ccc(S(=O)(=O)CC(=O)O)cc3)n2C)c(Cl)c1Cl	–
0.003	Cc1cc(Cl)c2cc(C(=O)N[C@H](C)c3ccc(S(=O)(=O)CC(=O)O)cc3)n(C)c2c1	–
0.072	COc1cc(Cl)cc2cc(C(=O)N[C@H](C)c3ccc(C(=O)O)cc3)n(C)c12	IC50 [2]: 0.746 µM
0.4	C[C@@H](NC(=O)c1cc(-c2ccccc2)nn1C)c1ccc(C(=O)O)cc1	–
3.1	C[C@@H](NC(=O)c1cc(-c2ccccc2)nn1C)c1ccc(C(N)=O)cc1	–
0.025	C[C@@H](NC(=O)c1cc(-c2ccccc2)nn1C)c1ccc(S(=O)(=O)CC(=O)O)cc1	–
5.2	C[C@@H](NC(=O)c1cc(-c2ccccc2)nn1C)c1ccc(N2C[C@@H](O)[C@@H](O)C2)cc1	–
0.03	CCc1cc(Cl)c2cc(C(=O)N[C@H](C)c3ccc(C(=O)O)cc3)n(C)c2c1	IC50 [2]: 0.301 µM
> 100	Cn1c(C(=O)NC(C(=O)O)c2ccccc2)cc2cc(Cl)ccc21 (racemic)	–
4.3	CC(NC(=O)c1cc(-c2ccccc2)nn1C)c1ccc(S(N)(=O)=O)cc1 (racemic)	–
0.028	Cc1cc(Cl)c2cc(C(=O)N[C@H](C)c3ccc(C(=O)O)cc3)n(C)c2c1	IC50 [2]: 0.246 µM
16.2	COc1ccc([C@@H](C)NC(=O)c2cc(-c3ccccc3)nn2C)cc1	–
> 100	Cn1c(C(=O)N[C@@H](c2ccccc2)[C@@H](O)C(F)(F)F)cc2cc(Cl)ccc21 (relative stereo)	–
> 100	C[C@@H](NC(=O)c1cc(-c2ccccc2)nn1C)c1ccc(NC(=N)N)cc1	–
5.2	Cn1c(C(=O)NC(CO)c2ccccc2)cc2cc(Cl)ccc21 (racemic)	–
11.7	C[C@H](O)[C@@H](NC(=O)c1cc2cc(Cl)ccc2n1C)c1ccccc1	–
0.254	C[C@@H](NC(=O)c1cc2cc(Cl)ccc2n1C)c1ccc(C(=O)O)cc1	IC50 [2]: 2.37 µM
> 100	COCC(NC(=O)c1cc2cc(Cl)ccc2n1C)c1ccccc1 (racemic)	–
> 100	C[C@H](NC(=O)c1cc(-c2ccccc2)nn1C)c1ccccc1	–
0.824	C[C@@H](NC(=O)c1cc2cc(Cl)cc(OC(F)(F)F)c2n1C)c1ccc(C(=O)O)cc1	IC50 [2]: 6.69 µM
